The target of assay [1] is T1, baculovirus-expressed ALK (Homo sapiens, UniProt Q9UM73).
T1 construct: host or cells: baculovirus expression system
Kind of assay: ALK Kinase Assay (ELISA-type, time-resolved fluorescence). The conditions noted are these: 1 μM ATP (Km level). The class given is biochemical. The procedure, abridged: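 Plates coated with phospholipase C-γ substrate (10 μg/mL in TBS); reaction started with 30 ng/ml ALK and run 15 min at 37° C. Phosphorylated substrate detected with Eu-N1-labeled PT66 antibody. IC50 from sigmoidal variable-slope fit of percent inhibition vs log concentration.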
(In general: An ELISA detects its analyte on a solid surface through an enzyme-linked reagent.)

For assay [2], the target named is T2, c-Met (cytoplasmic domain) (Homo sapiens, UniProt P08581).
T2 construct: 10 ng/mL c-Met (cytoplasmic domain, Invitrogen Corporation #PV3143); purchased Invitrogen Corporation PV3143
T2 sequence (P08581 956-1390 limits assumed): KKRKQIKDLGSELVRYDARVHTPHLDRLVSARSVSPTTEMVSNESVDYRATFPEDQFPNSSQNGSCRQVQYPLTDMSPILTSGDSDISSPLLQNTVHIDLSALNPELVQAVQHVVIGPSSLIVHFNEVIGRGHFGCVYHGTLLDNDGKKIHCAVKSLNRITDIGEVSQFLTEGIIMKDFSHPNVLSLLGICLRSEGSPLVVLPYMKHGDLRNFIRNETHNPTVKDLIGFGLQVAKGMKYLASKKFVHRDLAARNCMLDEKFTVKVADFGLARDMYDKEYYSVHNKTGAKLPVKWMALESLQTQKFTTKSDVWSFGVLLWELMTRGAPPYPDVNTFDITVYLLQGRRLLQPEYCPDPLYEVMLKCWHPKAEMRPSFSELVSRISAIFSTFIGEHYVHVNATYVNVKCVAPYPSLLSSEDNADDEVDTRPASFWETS
As to the kind of experiment: c-Met Kinase Assay (same methods as for ALK, with modifications). The class given is biochemical. Particulars: 1 μM ATP (Km level). The procedure, abridged:
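Plates were coated with phospholipase C-γ substrate (10 μg/mL) in TBS, and the reaction was started with 10 ng/mL c-Met cytoplasmic domain and run 15 min at 37 °C. Phosphoproduct was detected with Eu-N1-labelled PT66 antibody. IC50 came from a variable-slope sigmoidal fit of percent inhibition vs log concentration.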

Where [3] appears, read: read-out: ALK Activity (ALK Kinase Inhibition, IC50).
The mark [4] stands for this setting: read-out: cMet Activity (c-Met Kinase Inhibition, IC50).
[5] abbreviates: 30 ng/ml ALK, 37° C., 15 minutes, read-out: ALK Activity (ALK kinase inhibition, IC50 class).
[6] abbreviates: 10 ng/mL c-Met, read-out: cMet Activity (c-Met kinase inhibition, IC50 class).
Where [7] appears, read: ALK kinase inhibition, read-out: ALK Activity.
Where [8] appears, read: c-Met kinase inhibition, read-out: cMet Activity.

Structures are written as SMILES. Read-outs that look alike come from different tables or passages of the source. Some results are limits rather than exact numbers.

T1 sequence (Q9UM73 19-1620): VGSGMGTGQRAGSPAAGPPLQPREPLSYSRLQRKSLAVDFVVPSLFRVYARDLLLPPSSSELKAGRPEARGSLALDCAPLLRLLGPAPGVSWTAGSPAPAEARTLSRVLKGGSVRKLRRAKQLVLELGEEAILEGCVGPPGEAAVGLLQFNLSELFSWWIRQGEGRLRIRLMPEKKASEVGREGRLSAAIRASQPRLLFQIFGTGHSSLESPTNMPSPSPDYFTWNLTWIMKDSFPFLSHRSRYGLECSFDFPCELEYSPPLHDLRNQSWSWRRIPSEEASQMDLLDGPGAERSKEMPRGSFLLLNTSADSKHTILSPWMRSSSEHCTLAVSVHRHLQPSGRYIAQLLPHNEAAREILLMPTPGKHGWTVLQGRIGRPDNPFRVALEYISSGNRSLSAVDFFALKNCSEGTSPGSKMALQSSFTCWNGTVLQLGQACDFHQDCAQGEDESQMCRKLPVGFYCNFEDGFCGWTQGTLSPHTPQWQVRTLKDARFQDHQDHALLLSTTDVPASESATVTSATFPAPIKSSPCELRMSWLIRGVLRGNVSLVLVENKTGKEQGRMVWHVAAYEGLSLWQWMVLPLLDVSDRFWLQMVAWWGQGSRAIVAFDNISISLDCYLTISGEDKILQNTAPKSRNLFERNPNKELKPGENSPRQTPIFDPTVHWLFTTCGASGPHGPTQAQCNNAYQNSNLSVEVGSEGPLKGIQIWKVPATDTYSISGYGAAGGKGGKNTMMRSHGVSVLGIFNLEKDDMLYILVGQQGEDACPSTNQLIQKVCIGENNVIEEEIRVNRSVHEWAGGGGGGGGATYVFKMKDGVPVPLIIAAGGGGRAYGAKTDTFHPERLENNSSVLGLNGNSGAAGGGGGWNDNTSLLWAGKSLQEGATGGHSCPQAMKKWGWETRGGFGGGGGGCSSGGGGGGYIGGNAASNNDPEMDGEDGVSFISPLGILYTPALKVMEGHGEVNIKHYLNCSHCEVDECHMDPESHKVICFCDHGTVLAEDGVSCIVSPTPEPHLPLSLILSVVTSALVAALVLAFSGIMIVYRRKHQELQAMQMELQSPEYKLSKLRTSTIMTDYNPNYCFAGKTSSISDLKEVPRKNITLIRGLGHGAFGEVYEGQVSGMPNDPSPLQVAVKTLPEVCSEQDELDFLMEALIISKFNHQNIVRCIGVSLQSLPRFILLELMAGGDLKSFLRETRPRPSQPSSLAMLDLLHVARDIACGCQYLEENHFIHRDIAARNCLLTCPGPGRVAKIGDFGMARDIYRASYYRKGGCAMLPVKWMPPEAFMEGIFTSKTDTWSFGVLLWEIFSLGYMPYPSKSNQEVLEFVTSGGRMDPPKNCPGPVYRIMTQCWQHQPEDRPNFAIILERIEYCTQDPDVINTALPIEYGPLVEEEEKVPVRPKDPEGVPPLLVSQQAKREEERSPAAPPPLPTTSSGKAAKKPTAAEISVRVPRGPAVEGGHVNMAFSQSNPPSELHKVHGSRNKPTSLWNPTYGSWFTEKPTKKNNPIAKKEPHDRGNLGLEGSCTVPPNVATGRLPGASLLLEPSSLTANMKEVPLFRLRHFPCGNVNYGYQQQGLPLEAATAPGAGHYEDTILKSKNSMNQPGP

Turning to `COc1c(Nc2ncc(Cl)c(N[C@@H]3CCCC[C@H]3NS(C)(=O)=O)n2)ccc2c1CCC(N1CCOCC1)CC2` (mixture of isomers) [Example 884, N-{(1R,2R)-2-[5-Chloro-2-(1-methoxy-7-morpholin-4-yl-6,7,8,9-tetrahydro-5H-benzocyclohepten-2-ylamino)-pyrimidin-4-ylamino]-cyclohexyl}-methanesulfonamide], the IC50 was below 100 nM in assay [1] (setting [3]) and above 10000 nM in assay [2] (setting [4]).
On to `COc1ccc2c(c1Nc1ncc(Cl)c(Nc3ccccc3-n3cccn3)n1)CCC(NCC(F)F)CC2` (stereo not drawn) [Example 1076, 5-Chloro-N*2*-[7-(2,2-difluoro-ethylamino)-2-methoxy-6,7,8,9-tetrahydro-5H-benzocyclohepten-1-yl]-N*4*-(2-pyrazol-1-yl-phenyl)-pyrimidine-2,4-diamine], for which the IC50 is 100 to 1000 nM in assay [1] (setting [5]) and above 10000 nM in assay [2] (setting [6]).
`CCN1CCN(CC)c2cc(Nc3ncc(Cl)c(N[C@H]4[C@@H](C(N)=O)[C@@H]5C=C[C@H]4C5)n3)ccc2C1` [Example 720, (1S,2S,3R,4R)-3 [5-Chloro-2-(1,4-diethyl-2,3,4,5-tetrahydro-1H-1,4-benzodiazepin-8-ylamino)-pyrimidin-4ylamino]-bicyclo[2.2.1]hept-5-ene-2-carboxylic acid amide]: the IC50 in assay [1] (setting [3]) is below 100 nM; in assay [2] (setting [4]) it was 1000 to 10000 nM.
Take `C#CCNC(=O)c1cccc(F)c1Nc1nc(Nc2ccc3c(c2)OCCCN3C(=O)OCCOC)ncc1Cl` [Example 1437, 3-[5-Chloro-4-(2-fluoro-6-prop-2-ynylcarbamoyl-phenylamino)-pyrimidin-2-ylamino]-7,8-dihydro-6H-5-oxa-9-aza-benzocycloheptene-9-carboxylic acid 2-methoxy-ethyl ester]: the IC50 in assay [1] (setting [5]) is below 100 nM; in assay [2] (setting [6]) it was 100 to 1000 nM.
For `CC(C)N1CCNC(=O)c2ccc(Nc3ncc(Cl)c(N[C@@H]4CCCC[C@H]4NS(C)(=O)=O)n3)cc21` [Example 499, N-{(1R,2R)-2-[5-Chloro-2-(1-isopropyl-5-oxo-2,3,4,5-tetrahydro-1H-benzo[e][1,4]diazepin-8-ylamino)-pyrimidin-4-ylamino]-cyclohexyl}-methanesulfonamide], the IC50 in assay [1] (setting [3]) and in assay [2] (setting [4]) was 100 to 1000 nM throughout.
Regarding `C#CCN1CC2CCC(C1)c1cc(Nc3ncc(Cl)c(Nc4ccccc4C(=O)NC)n3)ccc12` (stereo not drawn) [Example 279, 2-[5-Chloro-2-(10-prop-2-ynyl-10-aza-tricyclo[6.3.2.0*2,7*]trideca-2,4,6-trien-4-ylamino)-pyrimidin-4-ylamino]-N-methyl-benzamide], the IC50 in assay [1] (setting [7]) and in assay [2] (setting [8]) was below 100 nM throughout.
Take `CNC(=O)c1ccccc1Nc1nc(Nc2ccc3c(c2)CCCNC3=O)ncc1Cl` [Example 11, 2-[5-Chloro-2-(1-oxo-2,3,4,5-tetrahydro-1H-benzo[c]azepin-7-ylamino)-pyrimidin-4-ylamino]-N-methyl-benzamide]: the IC50 in assay [1] (setting [7]) and in assay [2] (setting [8]) was below 100 nM each time.
In the case of `CNC(=O)c1scc(C)c1Nc1nc(Nc2ccc3c(c2)CCN(CCOC)CC3)ncc1Cl` [Example 1362, 3-{5-Chloro-2-[3-(2-methoxy-ethyl)-2,3,4,5-tetrahydro-1H-benzo[d]azepin-7-ylamino]-pyrimidin-4-ylamino}-4-methyl-thiophene-2-carboxylic acid methylamide], the IC50 is 100 to 1000 nM in assay [1] (setting [5]) and below 100 nM in assay [2] (setting [6]).
On to `COc1cc2c(cc1Nc1ncc(Cl)c(Nc3ccc(N4CCOCC4)cc3OC)n1)CCN(CC(=O)N1CCCC1)CC2` [Example 1155, 2-{7-[5-Chloro-4-(2-methoxy-4-morpholin-4-yl-phenylamino)-pyrimidin-2-ylamino]-8-methoxy-1,2,4,5-tetrahydro-benzo[d]azepin-3-yl}-1-pyrrolidin-1-yl-ethanone], for which the IC50 was below 100 nM in assay [1] (setting [5]) and above 10000 nM in assay [2] (setting [6]).

Values taken from patent US8148391B2 (Cephalon, Inc., priority 2006, dated 2012).
